Ends that are not written are not given here.
Legend:
[1] = 3H-heparin binding assay (affinity and capacity); settings: for Heparin Capacity: heparin bound at saturation; for Kd: read-out: Heparin Affinity
In short: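 Bound 3H-heparin was counted by liquid scintillation after 1 h incubation at 4 °C with fragments immobilised on PVDF-bottomed wells, then washing in blocking buffer. Signal was corrected for BSA-related background, and varying amounts of rBPI23 were used as positive control.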

[2] = system: rough mutant E. coli J5 bacteria; experiment: Radial diffusion bactericidal assay, E. coli J5; type: cell-based; settings: radial diffusion; for pmol added to well to achieve a 30 mm^2 bactericidal zone, E. coli J5: PROBIT analysis, E. coli J5 (rough); for bactericidal activity (in words): E. coli J5
In short: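 Log-phase bacteria, washed in 10 mM sodium phosphate pH 7.4, were seeded at 4×10^6 CFU/mL in underlayer agarose. BPI fragments (5 or 10 μL) went into 3 mm wells for 3 h at 37° C., then overlayer agarose was added. After overnight 37° C. incubation, clearing zones were measured by micrometer.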

[3] = system: multi-resistant strain E. coli 19536; experiment: Radial diffusion bactericidal assay, multi-antibiotic resistant E. coli 19536; type: cell-based
Procedure: (§1) These studies were conducted substantially following the procedures used in Example 2.
In order to test the bactericidal activity of BPI peptides against multi-antibiotic resistant E. coli, a multi-resistant strain E. coli 19536 (ampR 16 μg/mL; ceftazidimeR>16 μg/mL; ceftriazoneR>16 μg/mL) was tested. This strain is a clinical isolate obtained from the Baxter Microscan® library (Sacramento, Calif.). An overnight culture of E. coli 19536 was tested as described in Example 2 and part A above. Test BPI peptides were 2-fold serially diluted in D-PBS starting at about 1 mg/mL.

[4] = system: Staphylococcus aureus; experiment: Radial diffusion bactericidal assay, Staphylococcus aureus; type: cell-based; settings: radial diffusion; PROBIT analysis; S. aureus
[5] = system: E. coli 0111:B4 (smooth) bacteria; experiment: Radial diffusion bactericidal assay, E. coli 0111:B4; type: cell-based; settings: radial diffusion; for pmol added to well to achieve a 30 mm^2 bactericidal zone, E. coli O111:B4: PROBIT analysis, E. coli O111:B4 (smooth)
[6] = system: RAW 264.7 cells; experiment: LPS neutralization cellular proliferation assay, RAW 264.7 cells; type: cell-based, mouse
In short: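 Mouse RAW 264.7 cells were primed 24 h with 50U/mL mouse γ-interferon, then exposed about 15 h to E. coli O113 LPS in serum-free RPMI with or without BPI peptides at 25 ng/mL–50 μg/mL. Proliferation was quantified by [^3H]-thymidine uptake, 1 μCi/well, added at 5 h.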

[7] = system: C. albicans; experiment: Radial diffusion fungicidal assay, Candida albicans; type: cell-based; settings: radial diffusion
[8] = system: Klebsiella pneumoniae 19645; experiment: Radial diffusion bactericidal assay, antibiotic resistant Klebsiella pneumoniae 19645; type: cell-based
Procedure: as §1
In order to test the bactericidal activity of BPI peptides on antibiotic resistant strains of Klebsiella pneumoniae, the multi-resistant clinically isolated strain 19645 was tested as in Example 2 and above. […] This strain was obtained from the Baxter Microscan® library (Sacramento, Calif.). An overnight culture of Klebsiella pneumoniae 19645 and a non-resistant strain (ATCC 29011) were diluted 1:50 into fresh tryptic soy broth and incubated for 3 hours at 37° C. to attain log phase. The overnight cultures were tested as described in Example 2 and part A above.

[9] = system: E. coli 0111:B4 (smooth); experiment: Broth antibacterial assay, E. coli 0111:B4; type: cell-based
Procedure: (§2) In additional experiments, broth antibacterial assays were conducted to further determine the bactericidal activity of certain of the BPI peptides. Specifically, either E. coli J5 (rough) or E. coli 0111:B4 (smooth) bacteria were selected from single colonies on agar plates and used to inoculate 5 mL of Mueller Hinton broth and incubated overnight at 37° C. with shaking. The overnight culture was diluted (˜1:50) into 5 mL fresh broth and incubated at 37° C. to log phase (˜3 hours). Bacteria were pelleted for 5 minutes at 3000 rpm (1500×g). Bacterial pellets were resuspended in 5 mL PBS and diluted to 2×10^6 cells/mL in the Mueller Hinton broth (wherein 1 OD570 unit equals 1.25×10^9 CFU/mL). The BPI functional domain peptides to be tested were diluted to 200 μg/mL in broth and serially diluted 2-fold in 96 well culture plates (100 μL volume). All items were at 2-fold final concentration and experiments were conducted in triplicate. Bacteria were added at 100 μL/well and the plates were incubated on a shaker at 37° C. for a 20 hour period. The plates were then read on an ELISA plate multiple reader at 590 nm. One of the triplicate wells from each peptide concentration was selected for colony forming unit (CFU) determination. A 30 μL aliquot was added to 270 μL of PBS and further ten-fold serial dilutions were performed. Then a 50 μL aliquot was plated on tryptic soy agar and incubated overnight. Colonies were counted and final bacterial concentrations determined. The results of these assays are depicted in FIGS. 9e (for E. coli J5) and 9f (for E. coli 0111:B4).

[10] = system: E. coli J5 (rough); experiment: Broth antibacterial assay, E. coli J5; type: cell-based
Procedure: as §2

[11] = LPS binding by tryptophan fluorescence quenching
Excerpt: (§3) The naturally-occurring amino acid tryptophan can emit light (i.e., it fluoresces) having a wavelength between 300 and 400 nm after excitation with light having a wavelength of between about 280 nm and 290 nm, preferably 285 nm. The amount of emitted light produced by such fluorescence is known to be affected by the local environment, including pH and buffer conditions, as well as binding interactions between proteins and other molecules. Some BPI functional domain peptides derived from domains II and III contain tryptophan residues, and tryptophan fluorescence was used to assay binding interactions between the BPI functional domain peptides of the invention and LPS or heparin.
(§4) Tryptophan fluorescence of the BPI functional domain peptides of the invention was determined in the presence or absence of LPS or heparin using a SPEX Fluorolog fluorimeter. Samples were excited with 285 nm light using a 0.25 nm slitwidth. Emission wavelengths were scanned between 300-400 nm using a 1.25 nm slitwidth. Data were accumulated as the average of three determinations performed over an approximately 5 min time span. Samples were maintained at 25° C. or 37° C. during the course of the experiments using a circulating water bath. Crab endotoxin binding protein (CEBP), a protein wherein the intrinsic fluorescence of tryptophan residues is affected by binding to LPS, was used as a positive control. (See Wainwright et al., 1990, Cellular and Molecular Aspects of Endotoxin Reactions, Nowotny et al., eds., Elsevier Science Publishing B.V., The Netherlands, pp. 315-325).
(§5) Kd values were determined by Scatchard-type Stern-Volmer plots of the quenching data as the negative inverse of the slope of such plots. Comparing the data for BPI.10, BPI.46 and BPI.47, it is seen that as the Kd decreased (indicating an increase in avidity for LPS), the percent fluorescence quenching increased. The differences between these peptides include replacement of basic and polar amino acid residues with non-polar residues in […] as compared with BPI.10. In contrast, as the Kd of heparin binding decreased, a corresponding increase in the percentage of fluorescence quenching was not detected.

[12] = Heparin binding by tryptophan fluorescence quenching
Excerpt: as §3, §4, §5

Sequence | Heparin Capacity [1] [ng] | Kd [1] [nM] | pmol added to well to achieve a 30 mm^2 bactericidal zone, E. coli J5 [2] [pmol] | bactericidal activity (in words) [3] | pmol added to well to achieve a 30 mm^2 bactericidal zone, S. aureus [4] | pmol added to well to achieve a 30 mm^2 bactericidal zone, E. coli O111:B4 [5] | EC50 (peptide concentration at which the growth inhibitory effect of LPS was reversed by 50%) [6] [µg/mL] | IC50 (peptide concentration at which RAW cell growth was inhibited by 50%) [6] [µg/mL] | heparin binding capacity (in words) [1] | bactericidal activity (in words) [2] | C. albicans: pmol required for 30 mm^2 zone [7] [pmol] | bactericidal activity (in words) [8] | bactericidal activity (in words) [9] | bactericidal activity (in words) ([5]; E. coli 0111:B4) | bactericidal activity (in words) [10] | Quenching LPS [11] [%] | Kd ([11]; Stern-Volmer plots) [nM] | Quenching Heparin [12] [%] | Kd ([12]; Stern-Volmer plots) [nM]
IKISGKWKAFFRFLK [BPI.88] | 352.8 | 1630 | 70.32 | activity against multi-antibiotic resistant E. coli | 9,051.04 pmol | 540.15 pmol | >50 | 6.2 ± 7.5 | – | – | – | – | – | – | – | – | – | – | –
IKISGKWKAQKRFLKKSKVGWLIQLFHKK [BPI.63] | 305.1 | 600 | 86.94 | activity against multi-antibiotic resistant E. coli | 2,101.84 pmol | 511.61 pmol | 0.08 ± 0.02 | 7.1 ± 0.02 | extremely high heparin capacity | highly bactericidal | >1006.34 | active against antibiotic resistant Klebsiella | – | – | – | – | – | – | –
KRFLKKWKAQKRFLK [BPI.9] | 212.5 | 1140 | 476.60 | – | – | 5,337.50 pmol | – | – | – | exhibited bactericidal activity | – | – | significant bactericidal activity | exhibited bactericidal activity | significant bactericidal activity | – | – | – | –
KWKAAARFLKKWKAAARFLKKWKAAARFLK [BPI.69] | 450.8 | 967 | 56.68 | activity against multi-antibiotic resistant E. coli | 1,057.56 pmol | 244.07 pmol | 0.11 ± 0.07 | 2.4 ± 0.3 | extremely high heparin capacity | highly bactericidal | – | active against antibiotic resistant Klebsiella | – | – | – | 72 | 58 | 42 | 400
